# Laboratory results reported in patent US20240325557A1, “TREATMENT OF CANCER” (INNATE PHARMA, priority 2020, published 2024).
# How the values were obtained:
# [1] = failing prior chemotherapy; cited from earlier work
# [2] = 349 patients; cited from earlier work
# [3] = biological target: T1, Hu-Nectin4 IgC1C2-V5 (modified Nectin-4 lacking the Ig-like V domain, C1C2 construct) (Homo sapiens, UniProt Q96NY8); assay: Flow cytometry binding to cells expressing the Nectin-4 C1C2 construct
# T1 construct: expressed in transfected cells; host or cells: CHO
# T1 sequence (Q96NY8 148-510): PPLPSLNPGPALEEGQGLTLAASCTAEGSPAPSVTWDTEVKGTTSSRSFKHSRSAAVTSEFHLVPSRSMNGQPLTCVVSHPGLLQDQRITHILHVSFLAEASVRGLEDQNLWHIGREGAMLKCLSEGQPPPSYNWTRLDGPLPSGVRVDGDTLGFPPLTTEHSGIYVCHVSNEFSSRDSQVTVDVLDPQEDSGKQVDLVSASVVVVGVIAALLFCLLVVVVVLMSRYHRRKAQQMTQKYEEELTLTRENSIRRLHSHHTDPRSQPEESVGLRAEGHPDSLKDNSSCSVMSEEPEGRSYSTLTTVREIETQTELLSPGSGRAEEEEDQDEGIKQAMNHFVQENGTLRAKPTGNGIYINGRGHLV
# Protocol: (§1) The characterization of the binding of the antibodies on Nectin-4 domains was performed by flow cytometry using cells made to express the wild-type human Nectin-4 protein and cells made to express a modified Nectin-4 having the Ig-like C2 type 1 and the Ig-like C2 type 2 domains and lacking the Ig-like V domain (the C1C2 construct). The latter protein additionally bears a V5 tag for flow cytometry cell sorting, and cells were used as Nectin4-C1C2-V5 sorted cells.
# Wild-type Nectin-4 (the CI.3C8 cell line), a C2 construct (containing the Ig-like C2 type 2 domain and lacking both the V and the C1 domains) and the C1C2 construct allow the determination of whether test antibodies bind to the V or different C domains. Briefly, nucleic acid sequences encoding different human Nectin-4 domains were amplified by PCR. The PCR products were inserted into an expression vector at appropriate restriction sites. A leader peptide, and for C1C2 and C2 an N-terminal V5 tag having the amino acid sequence […] (SEQ ID NO: 41), were added, and expression at the surface of cells was confirmed by flow cytometry. The amino acid sequences of the resulting different human Nectin-4 domain fragment-containing proteins are shown below (V5 tag underlined). The vectors were then transfected into the CHO cell line to obtain stable clones expressing the different Nectin-4 domain proteins at the cell surface.
# [4] = biological target: T2, wild-type human Nectin-4 protein (huNectin4-his-BirA) (Homo sapiens, UniProt Q96NY8); assay: Affinity determination by SPR (Biacore T200); type: binding; conditions: 25° C.
# T2 sequence (Q96NY8 with tags, fused parts or gaps): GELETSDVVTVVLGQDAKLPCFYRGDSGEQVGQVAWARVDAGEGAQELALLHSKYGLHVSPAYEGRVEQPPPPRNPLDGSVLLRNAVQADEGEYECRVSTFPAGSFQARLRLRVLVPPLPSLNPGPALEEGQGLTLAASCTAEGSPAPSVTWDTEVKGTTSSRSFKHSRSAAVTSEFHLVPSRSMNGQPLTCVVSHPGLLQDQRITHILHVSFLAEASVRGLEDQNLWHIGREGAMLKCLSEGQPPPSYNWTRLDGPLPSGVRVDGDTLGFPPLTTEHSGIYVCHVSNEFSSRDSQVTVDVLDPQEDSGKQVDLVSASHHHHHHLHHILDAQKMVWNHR
# Protocol: Antibodies were tested for binding affinity to the wild-type human Nectin-4 protein by SPR (Surface Plasmon Resonance) methods. Measurements were performed on a Biacore T200 apparatus (Biacore GE Healthcare) at 25° C. Sensorgrams were analyzed with Biacore T100 Evaluation software. A CMR Sensor Chip with immobilized Protein A at about 600 RU was used. Anti-Nectin-4 antibodies were captured onto the Protein-A chip (antibodies diluted to 1 μg/ml in HBS-EP+1× buffer and injected over 120s at 40 μL/min). Recombinant human monomeric huNectin4-his-BirA protein was injected at different concentrations in a range from 100 nM to 1.56 nM over captured antibodies (HuNectin4-His-BirA diluted in HBS-EP+1× in ½ dilutions, injected over 120s at 40 μl/min) and allowed to dissociate for 600s. The chip was regenerated with NaOh 10 mM 2× for 30s at 40 μl/min. The sensorgram sets were fitted using the 1:1 kinetic binding model or two state reaction model, as a function of the profile of the curves.
# SUM190 cells = assay: In vivo efficacy of ADCs, SUM190 mouse model of human breast cancer (Example 9); conditions: single i.v. injection 3 mg/kg; antibodies conjugated to ggfg-Dxd, DAR=8
# Protocol: When tumors reached a volume between 195 and 250 mm3, mice were randomized into groups of 9 mice for intravenous treatment with a single injection of 3 mg/kg of camptothecin ADCs. Tumor growth were followed twice a week. Kaplan Meier survival curves were established by using GraphPad Prism V7 software according to the following criteria: When the tumor volume reached 1500 mm3, mice were euthanized and considered dead on the day of sacrifice (D).
# wild-type human Nectin-4 = biological target: T3, wild-type human Nectin-4 (Homo sapiens, UniProt Q96NY8); assay: Flow cytometry binding to wild-type Nectin-4 expressing CHO cells
# T3 construct: expressed in transfected cells; host or cells: CHO (huNectin4 Cl.3C8)
# T3 sequence (Q96NY8 32-510): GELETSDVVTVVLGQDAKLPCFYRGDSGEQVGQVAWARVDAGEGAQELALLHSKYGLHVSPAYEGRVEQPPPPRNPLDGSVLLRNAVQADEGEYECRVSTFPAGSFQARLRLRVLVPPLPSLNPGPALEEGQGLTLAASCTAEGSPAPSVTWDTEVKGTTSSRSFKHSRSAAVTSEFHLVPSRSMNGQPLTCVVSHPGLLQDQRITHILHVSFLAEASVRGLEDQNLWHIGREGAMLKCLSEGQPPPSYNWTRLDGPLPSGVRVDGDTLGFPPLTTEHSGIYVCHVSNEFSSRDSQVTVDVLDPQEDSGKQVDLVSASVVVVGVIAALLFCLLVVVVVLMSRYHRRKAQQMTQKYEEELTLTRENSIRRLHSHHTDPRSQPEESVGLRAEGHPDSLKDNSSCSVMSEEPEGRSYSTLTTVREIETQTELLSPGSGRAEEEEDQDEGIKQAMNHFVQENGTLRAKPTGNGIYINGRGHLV
# Protocol: plates of hybridoma supernatants were tested for binding on the wild-type human Nectin-4 expressing CHO cell line by flow cytometry. Briefly, Nectin-4 expressing cells were used at 0.2×10^6 cells by well in a buffer of PBS, BSA 0.5%, EDTA 5 mM. The first antibody was incubated with cells for 1h at +5±3° C. in 50 μL of supernatant. […] Acquisition HTFC flow cytometer (Intellicyt), with data analysis on ForeCyt™ software.
# as §1
# Wild-type Nectin-4 (the CI.3C8 cell line), a C2 construct (containing the Ig-like C2 type 2 domain and lacking both the V and the C1 domains) and the C1C2 construct allow the determination of whether test antibodies bind to the V or different C domains. Briefly, nucleic acid sequences encoding different human Nectin-4 domains were amplified by PCR. The PCR products were inserted into an expression vector at appropriate restriction sites. […]
# rat Nectin-4 = assay: Flow cytometry species cross-reactivity on CHO cells; type: binding
# Protocol: Anti-Nectin-4 antibodies were tested by flow cytometry for binding to different CHO cell lines made to express respectively the mouse, cynomolgus and rat Nectin-4 protein (including an N-terminal V5 tag not shown in the sequences below).
# [5] = test system: MC-38 cells that endogenously express MDR1 P-glycoprotein engineered to express Nectin-4; assay: In vitro efficacy of ADCs in Pgp-expressing cancer model (CTG, five days); type: cell-based; conditions: presence or absence of cyclosporin A (5 μM); 150 nM ADC, normalized to control antibody
# Protocol: MC-38 cells that endogenously express MDR1 P-glycoprotein (Pgp) were engineered to express Nectin-4 and cultured in DMEM+10% FBS. Cells were either treated with vehicle (DSMO) or with cyclosporin A (5 μM, stock solution in DMSO) known to act as an inhibitor of Pgp, in presence of ADCs.
# The ADCs and the equivalent isotype control ADCs were used at dose range from 150 to 2.3 10^−3 nM. After five days of co-incubation with cells, cell viability was measured by addition of Cell Titer Glo™ (CTG) substrate. Luminescence vs. Ab concentration was plotted.
# SUM185 cells = assay: In vitro ADC cytotoxicity, 5 days, CTG; type: cell-based, human; conditions: model of anti-HER2 resistance
# Protocol: Luminescence vs. Ab concentration was plotted on graph.
# For each ADC, a concentration range of ADC was incubated with nectin-4-expressing cells. After incubation, CTG substrate was added at 1/1 ratio and the luminescent signal was read with a plate reader (Enspire). It allowed quantifying the ATP present (indicator of metabolically active cells) which was proportional to cell viability.
# This setting is used as a model of anti-HER2 resistance.
# For each ADC, a concentration range of ADC was incubated with nectin-4-expressing cells. After incubation, CTG substrate was added at 1:1 ratio and the luminescent signal was read with a plate reader (Enspire), allowing quantification of the ATP present (indicator of metabolically active cells) which was proportional to cell viability.
# [6] = UC patients; cited from earlier work
# Sequence of rat Nectin-4 (as listed by the source): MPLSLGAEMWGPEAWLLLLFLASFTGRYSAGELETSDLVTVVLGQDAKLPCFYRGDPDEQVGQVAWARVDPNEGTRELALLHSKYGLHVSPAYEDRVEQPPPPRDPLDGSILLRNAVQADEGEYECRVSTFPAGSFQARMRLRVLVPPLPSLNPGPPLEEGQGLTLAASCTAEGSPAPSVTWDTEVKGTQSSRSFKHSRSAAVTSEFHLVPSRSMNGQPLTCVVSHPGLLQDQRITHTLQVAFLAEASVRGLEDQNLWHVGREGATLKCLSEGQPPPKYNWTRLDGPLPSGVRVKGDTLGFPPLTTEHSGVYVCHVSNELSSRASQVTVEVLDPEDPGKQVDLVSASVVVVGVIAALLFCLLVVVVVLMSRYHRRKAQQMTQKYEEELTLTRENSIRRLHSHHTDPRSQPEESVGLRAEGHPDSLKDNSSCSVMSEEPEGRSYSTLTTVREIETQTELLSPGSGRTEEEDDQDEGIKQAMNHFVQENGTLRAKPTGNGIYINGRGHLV
molecule,measurement,setting,value
CC[C@@]1(O)C(=O)OCc2c1cc1n(c2=O)Cc2cc3c([N+](=O)[O-])cccc3nc2-1 [RFS2000],activity in patients,[1],did not exert significant activity
CC[C@@]1(O)C(=O)OCc2c1cc1n(c2=O)Cc2c-1nc1cc(F)c(C)c3c1c2[C@@H](N)CC3 [exatecan],efficacy in addition to gemcitabine versus gemcitabine alone,[2],not superior in efficacy to gemcitabine alone
Enfortumab [reference compound],binding to the C1C2 construct,[3],lost all binding to the C1C2 construct
same,Kd,[4],13.7 nM
same,ka,[4],340000 M⁻¹ s⁻¹
same,kd,[4],0.0047 s⁻¹
same,control of tumor growth,SUM190 cells,no longer showed the ability to control tumor growth
same,binding to whole (wild-type) human Nectin-4 protein,wild-type human Nectin-4,bound to the whole Nectin-4 protein
same,binding to rat Nectin-4 expressing CHO cells,rat Nectin-4,bind to rat Nectin-4
PADCEV,influence of Pgp on anti-tumor activity,[5],negatively affected by Pgp
same,killing of SUM185 cells (cell viability),SUM185 cells,able to kill the SUM185 more efficiently than ENHERTU
same,CR (complete response rate),[6],12%
same,ORR (objective response rate),[6],44%
same,discontinuation due to clinical symptoms,[6],5%
same,discontinuation due to progressive disease as assessed by RECIST,[6],48%
same,"patients that discontinued experienced adverse events, notably neuropathy",[6],18%
